Holding throughout (test): Antitumor bioactivity evaluation, breast cancer cells (ATPlite)
Background: In ATP-based viability assays light output follows the ATP content of the culture.

Assay [1] has as its system BT/Lap^R1.0. It is filed as cell-based, human. Particulars: Homo sapiens; test sample 5 μM, 72 hours; read-out: Inhibitory Rate % BT/Lap^R1.0. The procedure:
(§1) Antitumor bioactivity evaluation of the compounds of Examples according to the method described below
(§2) Cells plating: a 100 mm culture dish with overgrown adherent cells was digested with 1 ml 0.25% trypsin (GIBCO) at 37° C. for 5 min, and the reaction was terminated with 2 ml culture medium (containing 10% FBS, GIBCO). The cells were scattered and collected, after counting, diluted to 1×10^5 cells/ml, and seeded into a 96-well plate at 50 μl/well, 5000 cells/well, excluding the peripheral circle of wells in which no cell was added, but PBS was added, 60 wells in total, and then incubated at 37° C. for 24 hours for adhering.
(§3) Addition of the compound and lapatinib: the test sample was diluted to a final concentration of 5 μM, and the culture medium with the corresponding compound solvent concentration was filled in the control well, the compound solvent concentration was kept consistent in each well, 5 parellel wells were set for each concentration, 25 μl each well, 25 μl culture medium (in combined group, 25 μl lapatinib was added till a final concentration of 1 μM) supplemented, followed by incubation at 37° C. for 72 hours.
(§4) Test after incubation at 37° C. for 72 hours: 50 μL of ATPlite kit substrate solution was added in each well, and vibrated for 3 min, followed by placing aside in darkness for 10 min, and then supernatant 100 μl/well was taken and placed on aluminescence test plate; the luminescence test plate that has been fully incubated was placed in a luminescence test instrument, to read luminescence value.
(§5) 1. Cell survival rate (%)=Experimental group RLU/control group RLU×100%. The experimental data were subjected to data analysis and processing by utilizing GraphPad software.

Assay [2] relates to SK-BR3. It counts as cell-based. The conditions noted are these: Homo sapiens, SK-BR-3; test sample 5 μM, 72 hours; read-out: Inhibitory Rate % SK-BR3. The procedure: as §1, §2, §3, §4, §5
The test system of assay [3] is MDA-MB-453. It counts as cell-based. The conditions noted are these: Homo sapiens, test sample 5 μM, 72 hours, read-out: Inhibitory Rate % MDA-MB-453. Here is the method: as §1, §2, §3, §4, §5
In assay [4] the test system is SK/Lap^R1.0. It counts as cell-based. The conditions noted are these: Homo sapiens; test sample 5 μM, 72 hours; read-out: Inhibitory Rate % SKLap^R1.0. Here is the method:
as §1, §2, §3, §4, §5

The test system of assay [5] is MDA-MB-361. It is filed as cell-based. The conditions noted are these: Homo sapiens, test sample 5 μM, 72 hours, read-out: Inhibitory Rate % MDA-MB-361. Here is the method: as §1, §2, §3, §4, §5
For assay [6], the system named is BT474. It is filed as cell-based. The conditions noted are these: Homo sapiens, BT-474; test sample 5 μM, 72 hours; read-out: Inhibitory Rate % BT474. Here is the method: as §1, §2, §3, §4, §5

As to `CSc1nccc(N2CCC(N(C)Cc3cccc(Cl)c3)CC2)n1` [Example 39, N-methyl-N-(3-chlorobenzyl)-N-[1-(2-methylthiopyrimidin-4-yl)piperidin-4-yl]amine], the inhibition at 5 µM in assay [1] turned out to be 25.1%; in assay [2], 26.4%; in assay [3], 65.7%; in assay [4], 24.4%; in assay [5], 39.1%; in assay [6] it was 35.1%.

As for `CSc1nccc(N2CCC(N(C)Cc3ccccc3C#N)CC2)n1` [Example 41, N-methyl-N-(2-cyanobenzyl)-N-[1-(2-methylthiopyrimidin-4-yl)piperidin-4-yl]amine], the inhibition at 5 µM worked out at 65.8% in assay [1]; 38.9% in assay [2]; 66.6% in assay [3]; 42% in assay [4]; 55.7% in assay [5]; 69.2% in assay [6].

On to `CSc1nccc(N2CCC(N(C)Cc3ccc(C)cc3)CC2)n1` [Example 42, N-methyl-N-(4-methylbenzyl)-N-[1-(2-methylthiopyrimidin-4-yl)piperidin-4-yl]amine], for which the inhibition at 5 µM is 28.6% in assay [1]; 41.4% in assay [2]; 60.8% in assay [3]; 35.8% in assay [4]; 45.1% in assay [5]; 36.7% in assay [6].

As to `COc1nccc(N2CCC(N(C)Cc3ccccc3Cl)CC2)n1` [Example 43, N-methyl-N-(2-chlorobenzyl)-N-[1-(2-methoxypyrimidin-4-yl)piperidin-4-yl]amine], the inhibition at 5 µM turned out to be 56.9% in assay [1]; 19.3% in assay [2]; 69.3% in assay [3]; 29.4% in assay [4]; 45.7% in assay [5]; 61% in assay [6].

In the case of `CSc1nccc(N2CCC(N(C)Cc3cc(Cl)ccc3Cl)CC2)n1` [Example 44, N-methyl-N-(2,5-dichlorobenzyl)-N-[1-(2-methylthiopyrimidin-4-yl)piperidin-4-yl]amine], the inhibition at 5 µM in assay [1] stood at 63.9%; in assay [2], 32.6%; in assay [3], 66.2%; in assay [4], 35.2%; in assay [5], 50.4%; in assay [6] it was 67.1%.

Regarding `CSc1nccc(N2CCC(N(C)Cc3cccc(F)c3)CC2)n1` [Example 45, N-methyl-N-(3-fluorobenzyl)-N-[1-(2-methylthiopyrimidin-4-yl)piperidin-4-yl]amine], the inhibition at 5 µM stood at 17.5% in assay [1]; 22.2% in assay [2]; 45.3% in assay [3]; 34.2% in assay [4]; 36.2% in assay [5]; 21.3% in assay [6].

As for `CNC1CCN(c2nccc(OC)n2)CC1` [Example 46, N-methyl-N-[1-(4-methoxypyrimidin-2-yl)piperidin-4-yl]amine], the inhibition at 5 µM in assay [1] was found to be 70%; in assay [2] it was 85.9%; in assay [3] it was 79.2%; in assay [4], 71%; in assay [5], 53.2%; in assay [6], 73.1%.

Take `COc1nccc(N2CCC(N(C)Cc3ccc(C#N)cc3)CC2)n1` [Example 48, N-methyl-N-(4-cyanobenzyl)-N-[1-(2-methoxypyrimidin-4-yl)piperidin-4-yl]amine]: the inhibition at 5 µM in assay [1] was 72.7%; in assay [2] it was 86.5%; in assay [3], 79.5%; in assay [4], 74.3%; in assay [5], 53.3%; in assay [6], 71.6%.

Regarding `COc1nccc(N2CCC(N(C)Cc3ccccc3C#N)CC2)n1` [Example 50, N-methyl-N-(2-cyanobenzyl)-N-[1-(2-methoxypyrimidin-4-yl)piperidin-4-yl]amine], the inhibition at 5 µM came out at 22.7% in assay [1]; 24.7% in assay [2]; 50.6% in assay [3]; 11.7% in assay [4]; 22% in assay [5]; 27.5% in assay [6].

As for `COc1nccc(N2CCC(N(C)Cc3ccc(C)cc3)CC2)n1` [Example 51, N-methyl-N-(4-methylbenzyl)-N-[1-(2-methoxypyrimidin-4-yl)piperidin-4-yl]amine], the inhibition at 5 µM in assay [1] worked out at 65.2%; in assay [2] it was 34.5%; in assay [3], 70.5%; in assay [4] it was 22.4%; in assay [5], 45.7%; in assay [6] it was 65.6%.

For `COc1nccc(N2CCC(N(C)Cc3cc(Cl)ccc3Cl)CC2)n1` [Example 52, N-methyl-N-(2,5-dichlorobenzyl)-N-[1-(2-methoxypyrimidin-4-yl)piperidin-4-yl]amine], the inhibition at 5 µM was 68.1% in assay [1]; 87.6% in assay [2]; 68.7% in assay [3]; 80.7% in assay [4]; 64.1% in assay [5]; 74.2% in assay [6].

For the compound `COc1nccc(N2CCC(N(C)Cc3ccc(Cl)c(Cl)c3)CC2)n1` [Example 53, N-methyl-N-(3,4-dichlorobenzyl)-N-[1-(2-methoxypyrimidin-4-yl)piperidin-4-yl]amine], the inhibition at 5 µM in assay [1] turned out to be 35.8%; in assay [2] it was 27.7%; in assay [3] it was 60.2%; in assay [4], 16.8%; in assay [5] it was 41.7%; in assay [6], 52.9%.

As to `COc1nccc(N2CCC(N(C)Cc3c(F)cccc3Cl)CC2)n1` [Example 54, N-methyl-N-(2-fluoro-6-chlorobenzyl)-N-[1-(2-methoxypyrimidin-4-yl)piperidin-4-yl]amine], the inhibition at 5 µM was 62.4% in assay [1]; 27.7% in assay [2]; 64.7% in assay [3]; 17.2% in assay [4]; 48.3% in assay [5]; 65.4% in assay [6].

For `COc1nccc(N2CCC(N(C)Cc3cccc(Cl)c3)CC2)n1` [Example 55, N-methyl-N-(3-chlorobenzyl)-N-[1-(2-methoxypyrimidin-4-yl)piperidin-4-yl]amine], the inhibition at 5 µM in assay [1] is 26.2%; in assay [2], 18.5%; in assay [3], 56.7%; in assay [4] it was 15.1%; in assay [5], 23.2%; in assay [6] it was 36.2%.

With `COc1nccc(N2CCC(N(C)Cc3cccc(F)c3)CC2)n1` [Example 56, N-methyl-N-(3-fluorobenzyl)-N-[1-(2-methoxypyrimidin-4-yl)piperidin-4-yl]amine], the inhibition at 5 µM in assay [1] stood at 10.5%; in assay [2], 9.2%; in assay [3], 27.9%; in assay [4] it was 3.9%; in assay [5], 8.5%; in assay [6], 9.9%.

With `COc1cc(N2CCC(N(C)Cc3ccccc3Cl)CC2)ncn1` [Example 58, N-methyl-N-(2-chlorobenzyl)-N-[1-(6-methoxypyrimidin-4-yl)piperidin-4-yl]amine], the inhibition at 5 µM was 18.9% in assay [1]; 13.5% in assay [2]; 46.7% in assay [3]; 29% in assay [4]; 20.3% in assay [5]; 27.7% in assay [6].

`COc1cc(N2CCC(N(C)Cc3ccc(C)cc3)CC2)ncn1` [Example 59, N-methyl-N-(4-methylbenzyl)-N-[1-(6-methoxypyrimidin-4-yl)piperidin-4-yl]amine]: the inhibition at 5 µM was determined as 8% in assay [1]; 20.6% in assay [2]; 13.4% in assay [3]; 22% in assay [4]; 10.6% in assay [5]; 5% in assay [6].

On to `COc1cc(N2CCC(N(C)Cc3c(Cl)cccc3Cl)CC2)ncn1` [Example 60, N-methyl-N-(2,6-dichlorobenzyl)-N-[1-(6-methoxypyrimidin-4-yl)piperidin-4-yl]amine], for which the inhibition at 5 µM was found to be 52.5% in assay [1]; 22.8% in assay [2]; 65.1% in assay [3]; 19.2% in assay [4]; 30.8% in assay [5]; 53.6% in assay [6].

The values above are taken from patent publication US10023565B2, “N,N′ substituted piperidinamine compounds, and preparation method and usage thereof” (Institute of Pharmacology and Toxicology Academy of …, priority 2013, dated 2018).
